PubChem BioAssay (NCI)
“And” between values parts separate entries of the source, which are not always exact repeats. Identical values can stand only once.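 Tested at 5 concentrations; 48 h exposure; 96-well plates; endpoints linearly interpolated, else capped at highest concentration. GI50 marks 50% less growth. TGI: concentration producing complete growth inhibition.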

What was measured:
Assay in all cases: NCI-60 cell line screen, 48 h
[1] = test system: 786-0 renal
[2] = test system: A498 renal
[3] = test system: A549 NSCLC
[4] = test system: ACHN renal
[5] = test system: BT-549 breast
[6] = test system: CAKI-1 renal
[7] = test system: CCRF-CEM leukemia
[8] = test system: COLO 205 colon
[9] = test system: EKVX NSCLC
[10] = test system: HCC-2998 colon
[11] = test system: HCT-116 colon
[12] = test system: HCT-15 colon
[13] = test system: HL-60(TB) leukemia
[14] = test system: HOP-62 NSCLC
[15] = test system: HOP-92 NSCLC
[16] = test system: HS 578T breast
[17] = test system: HT29 colon
[18] = test system: IGROV1 ovarian
[19] = test system: K-562 leukemia
[20] = test system: KM12 colon
[21] = test system: LOX IMVI melanoma
[22] = test system: M14 melanoma
[23] = test system: MALME-3M melanoma
[24] = test system: MCF7 breast
[25] = test system: MDA-MB-435
[26] = test system: MDA-N
[27] = test system: MOLT-4 leukemia
[28] = test system: NCI-H460 lung
[29] = test system: NCI-H522 lung
[30] = test system: NCI/ADR-RES ovarian
[31] = test system: OVCAR-3 ovarian
[32] = test system: OVCAR-4 ovarian
[33] = test system: OVCAR-5 ovarian
[34] = test system: OVCAR-8 ovarian
[35] = test system: PC-3 prostate
[36] = test system: RPMI-8226 leukemia
[37] = test system: SF-268 CNS
[38] = test system: SF-295 CNS
[39] = test system: SK-MEL-2 melanoma
[40] = test system: SK-MEL-28 melanoma
[41] = test system: SK-MEL-5 melanoma
[42] = test system: SK-OV-3 ovarian
[43] = test system: SNB-19 CNS
[44] = test system: SNB-75 CNS
[45] = test system: SR leukemia
[46] = test system: SW-620 colon
[47] = test system: T-47D breast
[48] = test system: U251 CNS
[49] = test system: UACC-257 melanoma
[50] = test system: UACC-62 melanoma
[51] = test system: UO-31 renal
[52] = test system: MDA-MB-231 breast
[53] = test system: NCI-H226 lung
[54] = test system: NCI-H23 lung
[55] = test system: RXF 393 renal
[56] = test system: SN12C renal
[57] = test system: TK-10 renal
[58] = test system: DU-145 prostate
[59] = test system: SF-539 CNS

## CC(=O)NC1(C(=O)N[C@@H](Cc2ccccc2)C(=O)NC2CCCCC2)Cc2ccc3ccccc3c2-c2c(ccc3ccccc23)C1
[1]
  TGI: > 100 µM
[2]
  TGI: > 100 µM
[3]
  GI50: 2.53 µM and 5.95 µM
  TGI: > 100 µM
[4]
  TGI: > 100 µM
[5]
  TGI: > 100 µM
[6]
  TGI: > 100 µM
[7]
  TGI: > 100 µM and 40.3 µM
[8]
  GI50: 2.2 µM and 5.01 µM
  TGI: 4.44 µM and 15.9 µM
[9]
  GI50: 4.45 µM and 18.4 µM
  TGI: > 100 µM
[10]
  TGI: > 100 µM and 89.5 µM
[11]
  TGI: > 100 µM
[12]
  TGI: > 100 µM
[13]
  TGI: 26.2 µM and 27.4 µM
[14]
  GI50: 12.2 µM and 57.3 µM
  TGI: > 100 µM
[15]
  TGI: > 100 µM
[16]
  TGI: > 100 µM
[17]
  TGI: > 100 µM and 57.5 µM
[18]
  GI50: 16.2 µM and 39.8 µM
  TGI: > 100 µM
[19]
  GI50: 2.7 µM and 7.67 µM
  TGI: > 100 µM
[20]
  GI50: 2.89 µM and 6.88 µM
  TGI: > 100 µM
[21]
  TGI: > 100 µM
[22]
  GI50: 3.32 µM and 7.79 µM
  TGI: 29.6 µM and 44 µM
[23]
  GI50: 5 µM and 19.4 µM
  TGI: > 100 µM
[24]
  TGI: > 100 µM
[25]
  GI50: 3.74 µM and 9.85 µM
  TGI: > 100 µM
[26]
  GI50: 5.39 µM and 15.2 µM
  TGI: > 100 µM
[27]
  GI50: 1.91 µM and 4.43 µM
[28]
  TGI: > 100 µM
[29]
  GI50: 4.56 µM and 10.4 µM
  TGI: > 100 µM
[30]
  TGI: > 100 µM
[31]
  GI50: 2.91 µM and 7.77 µM
  TGI: > 100 µM
[32]
  GI50: 1.17 µM and 6.26 µM
  TGI: > 100 µM
[33]
  GI50: 26.5 µM and 11.5 µM
  TGI: > 100 µM and 98 µM
[34]
  GI50: 8.67 µM and 33.2 µM
  TGI: > 100 µM
[35]
  GI50: 2.87 µM and 6.4 µM
  TGI: > 100 µM
[36]
  GI50: 3.31 µM and 13.9 µM
  TGI: > 100 µM
[37]
  GI50: 8.66 µM and 31.3 µM
  TGI: > 100 µM
[38]
  GI50: 2550 nM and 662 nM
  TGI: > 100 µM
[39]
  TGI: > 100 µM
[40]
  GI50: 9.72 µM and 23.1 µM
  TGI: > 100 µM
[41]
  GI50: 2.9 µM and 6.71 µM
  TGI: 12.1 µM and 23.7 µM
[42]
  GI50: 27.6 µM and > 100 µM
  TGI: > 100 µM
[43]
  GI50: 11 µM and 28.8 µM
  TGI: > 100 µM
[44]
  GI50: 7.84 µM and 1.43 µM
  TGI: > 100 µM and 36.6 µM
[45]
  TGI: > 100 µM
[46]
  TGI: > 100 µM
[47]
  TGI: > 100 µM
[48]
  TGI: > 100 µM
[49]
  GI50: 2 µM and 5.32 µM
  TGI: 10.8 µM and 75.5 µM
[50]
  GI50: 6.22 µM and 12.7 µM
  TGI: > 100 µM
[51]
  GI50: 2.8 µM and 11.8 µM
  TGI: 22.9 µM and 45.9 µM

## NC(CC(O)(c1ccccc1)c1ccccc1)c1ccccc1S (centres undefined)
[1]
  TGI: 29.4 µM
[2]
  TGI: 32.7 µM
[3]
  TGI: 29.5 µM
[4]
  TGI: 27.3 µM
[5]
  TGI: 27.8 µM
[7]
  TGI: 40.7 µM
[8]
  TGI: 32 µM
[9]
  TGI: 25.1 µM
[10]
  TGI: 50 µM
[11]
  TGI: 26.2 µM
[12]
  TGI: 33.6 µM
[13]
  TGI: 59.5 µM
[14]
  TGI: 30.2 µM
[16]
  TGI: 51 µM
[17]
  TGI: 37.5 µM
[19]
  TGI: 37.2 µM
[20]
  TGI: 25.5 µM
[21]
  TGI: 30.5 µM
[22]
  TGI: 29 µM
[23]
  TGI: 54.8 µM
[24]
  TGI: 29.9 µM
[52]
  TGI: 33.3 µM
[25]
  TGI: 28 µM
[26]
  TGI: 30.4 µM
[27]
  TGI: 59.6 µM
[53]
  TGI: 29.8 µM
[54]
  TGI: 37.7 µM
[28]
  TGI: 38.3 µM
[29]
  TGI: 30.3 µM
[30]
  TGI: 33.5 µM
[31]
  TGI: 29.5 µM
[32]
  TGI: 29.7 µM
[33]
  TGI: 31.7 µM
[35]
  TGI: 24.2 µM
[36]
  TGI: 68.3 µM
[55]
  TGI: 31 µM
[37]
  TGI: 24.8 µM
[38]
  TGI: 31.4 µM
[39]
  TGI: 33.2 µM
[40]
  TGI: 31.5 µM
[41]
  TGI: 25.6 µM
[42]
  TGI: 37.6 µM
[56]
  TGI: 44.1 µM
[43]
  TGI: 32.4 µM
[44]
  TGI: 28.2 µM
[45]
  TGI: > 100 µM
[46]
  TGI: 36.4 µM
[47]
  TGI: 37.4 µM
[57]
  TGI: 29.7 µM
[48]
  TGI: 28.3 µM
[49]
  TGI: 43.8 µM
[50]
  TGI: 32 µM
[51]
  TGI: 23.5 µM

## Cc1c(O)c(OC2OC(CO)C(O)C(O)C2O)cc2c1C=C[C@@H]1[C@@]2(C)C(=O)C[C@]2(C)[C@@H]([C@@](C)(O)C(=O)CCC(C)(C)O)[C@H](O)C[C@@]12C (some centres undefined)
[1]
  TGI: 74.3 µM
[2]
  TGI: 36.7 µM
[3]
  TGI: 83 µM
[4]
  TGI: 36.2 µM
[5]
  TGI: 49.5 µM
[6]
  TGI: 36.5 µM
[7]
  TGI: > 100 µM
[8]
  TGI: > 100 µM
[58]
  TGI: 56.6 µM
[9]
  TGI: 91.4 µM
[10]
  TGI: 41 µM
[11]
  TGI: 37.8 µM
[12]
  TGI: 66.3 µM
[13]
  TGI: > 100 µM
[14]
  TGI: > 100 µM
[15]
  TGI: 40.8 µM
[17]
  TGI: 83.1 µM
[18]
  TGI: 44.3 µM
[19]
  TGI: > 100 µM
[20]
  TGI: 66.6 µM
[21]
  TGI: 59.2 µM
[22]
  TGI: 68.9 µM
[23]
  TGI: 50 µM
[24]
  TGI: > 100 µM
[52]
  TGI: 47.7 µM
[25]
  TGI: 66.5 µM
[26]
  TGI: 77.5 µM
[27]
  TGI: 63.7 µM
[53]
  TGI: 62.7 µM
[54]
  TGI: 37.9 µM
[28]
  TGI: 48 µM
[29]
  TGI: 67.2 µM
[30]
  TGI: 69.4 µM
[31]
  TGI: 46.9 µM
[32]
  TGI: > 100 µM
[33]
  TGI: 61.2 µM
[34]
  TGI: > 100 µM
[35]
  TGI: 44.5 µM
[55]
  TGI: 38.1 µM
[37]
  TGI: 83.1 µM
[38]
  TGI: 36 µM
[59]
  TGI: 43.9 µM
[39]
  TGI: 68.7 µM
[40]
  TGI: 43.1 µM
[41]
  TGI: 43.6 µM
[42]
  TGI: 42.1 µM
[56]
  TGI: 44.1 µM
[43]
  TGI: 54 µM
[44]
  TGI: 62.9 µM
[45]
  TGI: > 100 µM
[46]
  TGI: 79.9 µM
[47]
  TGI: 46.3 µM
[57]
  TGI: 33.4 µM
[48]
  TGI: 43.2 µM
[49]
  TGI: 47.2 µM
[50]
  TGI: 33.5 µM
[51]
  TGI: 44.8 µM
